Measured values published in PubChem BioAssay (NCI).
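How tested: cells in 96-well plates exposed to compound for 48 hours at five concentrations. The concentration for full growth arrest is given as TGI.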

Legend:
Test in all cases: inhibition of tumour cell growth, NCI panel, 48 h
[1] = tested on: 786-0 renal
[2] = tested on: A498 renal
[3] = tested on: A549 NSCLC
[4] = tested on: ACHN renal
[5] = tested on: BT-549 breast
[6] = tested on: CAKI-1 renal
[7] = tested on: CCRF-CEM leukemia
[8] = tested on: COLO 205 colon
[9] = tested on: DU-145 prostate
[10] = tested on: EKVX NSCLC
[11] = tested on: HCC-2998 colon
[12] = tested on: HCT-116 colon
[13] = tested on: HCT-15 colon
[14] = tested on: HL-60(TB) leukemia
[15] = tested on: HOP-62 NSCLC
[16] = tested on: HOP-92 NSCLC
[17] = tested on: HS 578T breast
[18] = tested on: HT29 colon
[19] = tested on: IGROV1 ovarian
[20] = tested on: K-562 leukemia
[21] = tested on: KM12 colon
[22] = tested on: LOX IMVI melanoma
[23] = tested on: M14 melanoma
[24] = tested on: MALME-3M melanoma
[25] = tested on: MCF7 breast
[26] = tested on: MDA-MB-231 breast
[27] = tested on: MDA-MB-435
[28] = tested on: MDA-N
[29] = tested on: MOLT-4 leukemia
[30] = tested on: NCI-H226 lung
[31] = tested on: NCI-H23 lung
[32] = tested on: NCI-H460 lung
[33] = tested on: NCI-H522 lung
[34] = tested on: NCI/ADR-RES ovarian
[35] = tested on: OVCAR-3 ovarian
[36] = tested on: OVCAR-4 ovarian
[37] = tested on: OVCAR-5 ovarian
[38] = tested on: OVCAR-8 ovarian
[39] = tested on: PC-3 prostate
[40] = tested on: RPMI-8226 leukemia
[41] = tested on: RXF 393 renal
[42] = tested on: SF-268 CNS
[43] = tested on: SF-295 CNS
[44] = tested on: SF-539 CNS
[45] = tested on: SK-MEL-2 melanoma
[46] = tested on: SK-MEL-28 melanoma
[47] = tested on: SK-MEL-5 melanoma
[48] = tested on: SK-OV-3 ovarian
[49] = tested on: SN12C renal
[50] = tested on: SNB-19 CNS
[51] = tested on: SNB-75 CNS
[52] = tested on: SR leukemia
[53] = tested on: SW-620 colon
[54] = tested on: T-47D breast
[55] = tested on: TK-10 renal
[56] = tested on: U251 CNS
[57] = tested on: UACC-257 melanoma
[58] = tested on: UACC-62 melanoma
[59] = tested on: UO-31 renal
[60] = tested on: DLD-1 colon
[61] = tested on: DMS 114 small cell lung
[62] = tested on: DMS 273 small cell lung
[63] = tested on: HOP-18 NSCLC
[64] = tested on: LXFL 529 NSCLC
[65] = tested on: M19-MEL melanoma
[66] = tested on: SNB-78 CNS

Question: `Clc1ccc(-c2cn3c(nc4ccccc43)c(-c3ccccc3)n2)cc1` was tested. Which TGI [1] did it give?
Answer: The TGI was 15.2 µM.

Question: And the TGI [2]?
Answer: Its TGI is 54 µM.

Question: What about the TGI [3] of the same molecule?
Answer: The TGI was 51.4 µM.

Question: What about the TGI [4] of the same molecule?
Answer: Its TGI is 95.9 µM.

Question: And the TGI [5]?
Answer: Its TGI is 50.2 µM.

Question: What about the TGI [6] of the same molecule?
Answer: Its TGI is 32.1 µM.

Question: What about the TGI [7] of the same molecule?
Answer: Its TGI is over 100 µM.

Question: What about the TGI [8] of the same molecule?
Answer: Its TGI is over 100 µM.

Question: What about the TGI [9] of the same molecule?
Answer: The TGI was over 100 µM.

Question: And the TGI [10]?
Answer: Its TGI is over 100 µM.

Question: And the TGI [11]?
Answer: The TGI was over 100 µM.

Question: And the TGI [12]?
Answer: Its TGI is over 100 µM.

Question: What about the TGI [13] of the same molecule?
Answer: The TGI was over 100 µM.

Question: And the TGI [14]?
Answer: Its TGI is over 100 µM.

Question: And the TGI [15]?
Answer: The TGI was 24.6 µM.

Question: What about the TGI [16] of the same molecule?
Answer: Its TGI is 40.9 µM.

Question: What about the TGI [17] of the same molecule?
Answer: Its TGI is 66 µM.

Question: And the TGI [18]?
Answer: Its TGI is over 67.5 µM.

Question: What about the TGI [19] of the same molecule?
Answer: Its TGI is over 78.3 µM.

Question: And the TGI [20]?
Answer: The TGI was over 100 µM.

Question: And the TGI [21]?
Answer: The TGI was over 100 µM.

Question: What about the TGI [22] of the same molecule?
Answer: The TGI was over 100 µM.

Question: What about the TGI [23] of the same molecule?
Answer: The TGI was over 87.4 µM.

Question: What about the TGI [24] of the same molecule?
Answer: The TGI was over 63.7 µM.

Question: What about the TGI [25] of the same molecule?
Answer: The TGI was over 100 µM.

Question: And the TGI [26]?
Answer: The TGI was over 100 µM.

Question: And the TGI [27]?
Answer: The TGI was over 100 µM.

Question: And the TGI [28]?
Answer: The TGI was over 100 µM.

Question: And the TGI [29]?
Answer: The TGI was over 100 µM.

Question: What about the TGI [30] of the same molecule?
Answer: The TGI was over 100 µM.

Question: What about the TGI [31] of the same molecule?
Answer: Its TGI is 64.2 µM.

Question: And the TGI [32]?
Answer: Its TGI is over 57.4 µM.

Question: And the TGI [33]?
Answer: The TGI was 43.3 µM.

Question: What about the TGI [34] of the same molecule?
Answer: Its TGI is over 100 µM.

Question: What about the TGI [35] of the same molecule?
Answer: Its TGI is over 82.4 µM.

Question: And the TGI [36]?
Answer: The TGI was 25.2 µM.

Question: And the TGI [37]?
Answer: The TGI was over 55.9 µM.

Question: What about the TGI [38] of the same molecule?
Answer: Its TGI is 33 µM.

Question: And the TGI [39]?
Answer: The TGI was 47 µM.

Question: What about the TGI [40] of the same molecule?
Answer: Its TGI is over 100 µM.

Question: And the TGI [41]?
Answer: Its TGI is over 49.2 µM.

Question: What about the TGI [42] of the same molecule?
Answer: The TGI was over 100 µM.

Question: And the TGI [43]?
Answer: The TGI was 28.3 µM.

Question: What about the TGI [44] of the same molecule?
Answer: Its TGI is over 69 µM.

Question: What about the TGI [45] of the same molecule?
Answer: Its TGI is 38.8 µM.

Question: What about the TGI [46] of the same molecule?
Answer: The TGI was over 100 µM.

Question: What about the TGI [47] of the same molecule?
Answer: Its TGI is 46.5 µM.

Question: What about the TGI [48] of the same molecule?
Answer: Its TGI is 26.5 µM.

Question: What about the TGI [49] of the same molecule?
Answer: The TGI was over 100 µM.

Question: And the TGI [50]?
Answer: Its TGI is 32.6 µM.

Question: What about the TGI [51] of the same molecule?
Answer: The TGI was over 36.6 µM.

Question: What about the TGI [52] of the same molecule?
Answer: The TGI was over 100 µM.

Question: What about the TGI [53] of the same molecule?
Answer: Its TGI is over 100 µM.

Question: What about the TGI [54] of the same molecule?
Answer: The TGI was over 75.5 µM.

Question: And the TGI [55]?
Answer: The TGI was 62.2 µM.

Question: And the TGI [56]?
Answer: Its TGI is 25.3 µM.

Question: And the TGI [57]?
Answer: The TGI was over 100 µM.

Question: And the TGI [58]?
Answer: The TGI was 26.7 µM.

Question: And the TGI [59]?
Answer: The TGI was over 60 µM.

Question: `FC(F)(F)c1ccccc1C1SCc2nc3ccccc3n21` (stereo not drawn) was tested. Which TGI [1] did it give?
Answer: Its TGI is over 100 µM.

Question: And the TGI [2]?
Answer: The TGI was 94.4 µM.

Question: And the TGI [3]?
Answer: The TGI was over 100 µM.

Question: What about the TGI [4] of the same molecule?
Answer: Its TGI is over 100 µM.

Question: What about the TGI [6] of the same molecule?
Answer: The TGI was over 100 µM.

Question: And the TGI [7]?
Answer: The TGI was over 100 µM.

Question: And the TGI [8]?
Answer: Its TGI is over 100 µM.

Question: What about the TGI [60] of the same molecule?
Answer: Its TGI is over 100 µM.

Question: And the TGI [61]?
Answer: Its TGI is over 100 µM.

Question: And the TGI [62]?
Answer: The TGI was over 100 µM.

Question: And the TGI [10]?
Answer: Its TGI is over 100 µM.

Question: And the TGI [11]?
Answer: Its TGI is over 100 µM.

Question: What about the TGI [12] of the same molecule?
Answer: The TGI was over 100 µM.

Question: What about the TGI [14] of the same molecule?
Answer: Its TGI is 47 µM.

Question: What about the TGI [63] of the same molecule?
Answer: Its TGI is over 100 µM.

Question: What about the TGI [16] of the same molecule?
Answer: Its TGI is 53.3 µM.

Question: And the TGI [18]?
Answer: Its TGI is over 100 µM.

Question: And the TGI [19]?
Answer: Its TGI is over 100 µM.

Question: And the TGI [20]?
Answer: The TGI was over 100 µM.

Question: What about the TGI [21] of the same molecule?
Answer: The TGI was over 100 µM.

Question: And the TGI [64]?
Answer: The TGI was over 100 µM.

Question: And the TGI [65]?
Answer: The TGI was over 100 µM.

Question: What about the TGI [24] of the same molecule?
Answer: The TGI was over 100 µM.

Question: And the TGI [29]?
Answer: The TGI was over 100 µM.

Question: What about the TGI [30] of the same molecule?
Answer: Its TGI is over 100 µM.

Question: And the TGI [31]?
Answer: Its TGI is over 100 µM.

Question: And the TGI [33]?
Answer: Its TGI is over 100 µM.

Question: What about the TGI [35] of the same molecule?
Answer: The TGI was over 100 µM.

Question: And the TGI [37]?
Answer: Its TGI is over 100 µM.

Question: What about the TGI [38] of the same molecule?
Answer: Its TGI is over 100 µM.

Question: And the TGI [40]?
Answer: Its TGI is over 100 µM.

Question: And the TGI [41]?
Answer: The TGI was over 100 µM.

Question: What about the TGI [42] of the same molecule?
Answer: Its TGI is over 100 µM.

Question: And the TGI [43]?
Answer: Its TGI is over 100 µM.

Question: What about the TGI [44] of the same molecule?
Answer: The TGI was over 100 µM.

Question: And the TGI [45]?
Answer: The TGI was over 100 µM.

Question: And the TGI [46]?
Answer: Its TGI is over 100 µM.

Question: What about the TGI [48] of the same molecule?
Answer: Its TGI is over 100 µM.

Question: What about the TGI [49] of the same molecule?
Answer: Its TGI is over 100 µM.

Question: And the TGI [50]?
Answer: Its TGI is over 100 µM.

Question: And the TGI [51]?
Answer: The TGI was over 100 µM.

Question: What about the TGI [66] of the same molecule?
Answer: The TGI was over 100 µM.

Question: And the TGI [52]?
Answer: Its TGI is over 100 µM.

Question: And the TGI [53]?
Answer: The TGI was over 100 µM.

Question: What about the TGI [55] of the same molecule?
Answer: The TGI was over 100 µM.

Question: What about the TGI [56] of the same molecule?
Answer: The TGI was over 100 µM.

Question: And the TGI [57]?
Answer: Its TGI is over 100 µM.

Question: And the TGI [58]?
Answer: Its TGI is over 100 µM.

Question: What about the TGI [59] of the same molecule?
Answer: Its TGI is over 100 µM.
